The results in this text go back to US4136194A, “2-Phenyl-2-carboxyethyl 1-(p-chlorobenzoyl)-5-methoxy-2-methyl-3-indolylacetate and process for preparation thereof” (SPOFA, United Pharmaceutical Works, priority 1976, dated 1979).

Like-named read-outs stand apart in the source and are kept apart here.

The nature of data set [1]: Acute oral toxicity in rats. The note with it: rat, in vivo, single dose, female rats, 10 days, limits after the slash. The protocol:
(§1) The 2-phenyl-2-carboxyethyl 1-(p-chlorobenzoyl)-5-methoxy-2-methyl-3-indolylacetate prepared in accordance with the invention was evaluated by comparison with 1-(p-chlorobenzoyl-5-methoxy-2-methyl-3-indolylacetic acid), the widely-used anti-inflammatory substance indomethacin. The two compounds were compared upon oral administration of their aqueous suspensions, with the addition of gum arabic, into the stomachs of test animals using a flexible metallic probe.
(§2) Acute toxicity was determined by administering both compounds in a single dose to female mice weighing 16-20 grams (groups of ten) and female rats weighing 130-150 grams (groups of ten). The mortality rate was followed for 10 days after administration of the dosage. The median lethal doses, LD50, are set forth in Table I below and were calculated by the method of J. Berkson, J. Am. Stat. Assoc. 50, 529, (1955).

The subject of data set [2] is mice. Description: Analgesic activity, intraperitoneal irritation test with 3% acetic acid. It counts as in vivo, female mice. As to conditions: Mus musculus, read-out: ED50 (analgesic activity). The method, then: as §1
Analgesic activity was evaluated by the intraperitoneal irritation test with 3% acetic acid (L. B. Wilkin et al., J. Pharm. 133, 400 (1961)) in female mice weighing 16-20 grams (groups of 12 animals).

Data set [3] can be described thus: Acute oral toxicity in mice. As to conditions: mouse, in vivo, single dose, female mice, 10 days, limits after the slash. The method, then: as §1, §2
The test system of data set [4] is carrageenin oedema. Description: Carrageenin oedema inhibition. It counts as in vivo. As to conditions: 1.5 mg/kg p.o., male rats, vs untreated control. The method, then: as §1
(§3) Anti-inflammatory activity was evaluated on kaolin oedema, carrageenin oedema and Freund adjuvant disease as standard model inflammatory syndromes in a group of six male rats.
The carrageenin oedema (Ch. Winter, Proc. Soc. Exp. Biol. Med. 111, 544 (1962)) was produced in male rats weighing 130-150 grams by subplanatary injection of a 0.5% carrageenin solution (0.1 ml). The dosage schedule and assay procedure as well as the results were identical with those described above for the kaolin oedema inhibition test.
In general terms: In the carrageenan paw model, swelling and tenderness develop within hours.

For data set [5], the system named is kaolin oedema. The data set can be described thus: Kaolin oedema inhibition. Type of data set: in vivo. As to conditions: 1 mg/kg p.o., one hour before kaolin, male rats, vs untreated control. The protocol: as §1, §3
The kaolin oedema of an extremity (J. Hillebrecht, Arzneim.-Forsch. 9, 625 (1969)) was produced in male rats weighing 130-150 grams by subplanatary injection of a 10% aqueous suspension of kaolin (0.1 ml). The indolylacetate of the invention and indomethacin were administered one hour before the injection of the suspension. The oedema size was measured 30 minutes, 3, 4.5 and 6 hours after the injection. The activity is conveniently expressed in percent of rate of inhibition in comparison with the untreated control group, the results being summarized in Table II below.

Data set [6] concerns gastric mucosa. It counts as in vivo. The note with it: 8 mg/kg oral, starving female rats. The method, then: as §1
Gastrotoxicity (adversary effect on gastric mucosa, A. Robert, J. E. Nezamis, Proc. Soc. Exp. Biol. Med. 99, 443 (1958)) was monitored by oral administration of the compounds being compared by testing starving female rats of 250-300 grams body weight (group of six animals). The evaluation was made by estimating the frequency of gastric erosions and ulcers. The relative gastrotoxicity of the two compounds is expressed by the respective standard criteria, ulceration index, as indicated in Table IV below.

As a reminder, the LD50 is the dose expected to kill half of the subjects tested. Lower therefore signals greater toxicity. The term ED50 denotes the dose that gives a 50% effect, or the effect in half of the subjects. For the compound `COc1ccc2c(c1)c(CC(=O)OCC(C(=O)O)c1ccccc1)c(C)n2C(=O)c1ccc(Cl)cc1` (centres unmarked) [Compound of Invention, 2-phenyl-2-carboxyethyl 1-(p-chlorobenzoyl)-5-methoxy-2-methyl-3-indolylacetate], the LD50 at 240 h in data set [1] amounted to 140 mg/kg; in data set [3], 190 mg/kg. For the same compound, the 50% effective dose (ED50) in data set [2] (oral, female mice, 3% acetic acid i.p.) was 24.5 mg/kg. The same compound came in with a Carrageenin oedema inhibition in data set [4] of 15%. Further, the Kaolin oedema inhibition in data set [5] was found to be 16%.
Regarding `COc1ccc2c(c1)c(CC(=O)O)c(C)n2C(=O)c1ccc(Cl)cc1` [Indomethacin, 1-(p-chlorobenzoyl)-5-methoxy-2-methyl-3-indolylacetic acid], the figures for the LD50 at 240 h in data set [1] and in data set [3] were 25 mg/kg and 18 mg/kg, respectively. The ED50 in data set [2] (po) amounted to 14.5 mg/kg. Besides, the “Ulceration Index” value in data set [6] stood at 300. The compound also yielded a Carrageenin oedema inhibition in data set [4] of 14%. The compound further registered a Kaolin oedema inhibition in data set [5] of 19%.
